PubChem BioAssay (NCI)
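Cells were grown in 96-well plates and exposed to each compound for 48 hours at five concentrations; endpoints were interpolated linearly between bracketing concentrations, or set to the highest concentration if not reached. GI50 = concentration required for 50% inhibition of growth. TGI: concentration producing complete growth inhibition.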

Legend:
Test in all cases: NCI tumour cell line growth inhibition, 48 h
U251 CNS = system: U251 CNS
DU-145 prostate = system: DU-145 prostate
HCC-2998 colon = system: HCC-2998 colon
NCI-H226 lung = system: NCI-H226 lung
NCI-H23 lung = system: NCI-H23 lung
OVCAR-8 ovarian = system: OVCAR-8 ovarian
UO-31 renal = system: UO-31 renal
HOP-92 NSCLC = system: HOP-92 NSCLC
OVCAR-5 ovarian = system: OVCAR-5 ovarian
SNB-75 CNS = system: SNB-75 CNS
SN12C renal = system: SN12C renal
UACC-257 melanoma = system: UACC-257 melanoma
RXF 393 renal = system: RXF 393 renal
MDA-MB-231 breast = system: MDA-MB-231 breast
MALME-3M melanoma = system: MALME-3M melanoma
SF-295 CNS = system: SF-295 CNS
KM12 colon = system: KM12 colon
LOX IMVI melanoma = system: LOX IMVI melanoma
EKVX NSCLC = system: EKVX NSCLC
PC-3 prostate = system: PC-3 prostate
HCT-15 colon = system: HCT-15 colon
NCI-H522 lung = system: NCI-H522 lung
MOLT-4 leukemia = system: MOLT-4 leukemia
SR leukemia = system: SR leukemia
MCF7 breast = system: MCF7 breast
K-562 leukemia = system: K-562 leukemia
SK-MEL-5 melanoma = system: SK-MEL-5 melanoma
UACC-62 melanoma = system: UACC-62 melanoma
SK-MEL-2 melanoma = system: SK-MEL-2 melanoma
OVCAR-3 ovarian = system: OVCAR-3 ovarian
A498 renal = system: A498 renal
SNB-19 CNS = system: SNB-19 CNS
MDA-MB-435 = system: MDA-MB-435
CCRF-CEM leukemia = system: CCRF-CEM leukemia
OVCAR-4 ovarian = system: OVCAR-4 ovarian
HOP-62 NSCLC = system: HOP-62 NSCLC
SK-OV-3 ovarian = system: SK-OV-3 ovarian
SF-539 CNS = system: SF-539 CNS
IGROV1 ovarian = system: IGROV1 ovarian
CAKI-1 renal = system: CAKI-1 renal
HL-60(TB) leukemia = system: HL-60(TB) leukemia
SW-620 colon = system: SW-620 colon
HCT-116 colon = system: HCT-116 colon
A549 NSCLC = system: A549 NSCLC
MDA-MB-468 breast = system: MDA-MB-468 breast
HT29 colon = system: HT29 colon
SK-MEL-28 melanoma = system: SK-MEL-28 melanoma
HS 578T breast = system: HS 578T breast
M14 melanoma = system: M14 melanoma
BT-549 breast = system: BT-549 breast
RPMI-8226 leukemia = system: RPMI-8226 leukemia
T-47D breast = system: T-47D breast
SF-268 CNS = system: SF-268 CNS
TK-10 renal = system: TK-10 renal
NCI-H460 lung = system: NCI-H460 lung
NCI/ADR-RES ovarian = system: NCI/ADR-RES ovarian
786-0 renal = system: 786-0 renal
ACHN renal = system: ACHN renal
COLO 205 colon = system: COLO 205 colon

N#C/C(=C1/C(=O)Nc2ccccc21)c1nnc(NC(=O)c2ccc(-n3c(=O)[nH]c4ccccc4c3=O)cc2)s1
GI50 (U251 CNS): > 100 µM
TGI (U251 CNS): > 100 µM
GI50 (DU-145 prostate): 53.6 µM
TGI (DU-145 prostate): > 100 µM
GI50 (HCC-2998 colon): 39.8 µM
TGI (HCC-2998 colon): > 100 µM
GI50 (NCI-H226 lung): 17.6 µM
TGI (NCI-H226 lung): > 100 µM
GI50 (NCI-H23 lung): 45.2 µM
TGI (NCI-H23 lung): > 100 µM
GI50 (OVCAR-8 ovarian): 67.6 µM
TGI (OVCAR-8 ovarian): > 100 µM
GI50 (UO-31 renal): 31.8 µM
TGI (UO-31 renal): > 100 µM
GI50 (HOP-92 NSCLC): 33.8 µM
TGI (HOP-92 NSCLC): > 100 µM
GI50 (OVCAR-5 ovarian): > 100 µM
TGI (OVCAR-5 ovarian): > 100 µM
GI50 (SNB-75 CNS): 16.2 µM
TGI (SNB-75 CNS): > 100 µM
GI50 (SN12C renal): 58.3 µM
TGI (SN12C renal): > 100 µM
GI50 (UACC-257 melanoma): 46.2 µM
TGI (UACC-257 melanoma): > 100 µM
GI50 (RXF 393 renal): 14.5 µM
TGI (RXF 393 renal): > 100 µM
GI50 (MDA-MB-231 breast): 38.4 µM
TGI (MDA-MB-231 breast): > 100 µM
GI50 (MALME-3M melanoma): 45.6 µM
TGI (MALME-3M melanoma): > 100 µM
GI50 (SF-295 CNS): 45.9 µM
TGI (SF-295 CNS): > 100 µM
GI50 (KM12 colon): 33.4 µM
TGI (KM12 colon): > 100 µM
GI50 (LOX IMVI melanoma): 21.6 µM
TGI (LOX IMVI melanoma): > 100 µM
GI50 (EKVX NSCLC): 46.1 µM
TGI (EKVX NSCLC): > 100 µM
GI50 (PC-3 prostate): 30.3 µM
TGI (PC-3 prostate): > 100 µM
GI50 (HCT-15 colon): 27.3 µM
TGI (HCT-15 colon): > 100 µM
GI50 (NCI-H522 lung): 13.2 µM
TGI (NCI-H522 lung): 71.7 µM
GI50 (MOLT-4 leukemia): 20.7 µM
TGI (MOLT-4 leukemia): 60.9 µM
GI50 (SR leukemia): 33.1 µM
TGI (SR leukemia): > 100 µM
GI50 (MCF7 breast): 18.3 µM
TGI (MCF7 breast): > 100 µM
GI50 (K-562 leukemia): 26.1 µM
TGI (K-562 leukemia): > 100 µM
GI50 (SK-MEL-5 melanoma): 32.2 µM
TGI (SK-MEL-5 melanoma): > 100 µM
GI50 (UACC-62 melanoma): 47.4 µM
TGI (UACC-62 melanoma): > 100 µM
GI50 (SK-MEL-2 melanoma): > 100 µM
TGI (SK-MEL-2 melanoma): > 100 µM
GI50 (OVCAR-3 ovarian): 10.9 µM
TGI (OVCAR-3 ovarian): 71.6 µM
GI50 (A498 renal): > 100 µM
TGI (A498 renal): > 100 µM
GI50 (SNB-19 CNS): > 100 µM
TGI (SNB-19 CNS): > 100 µM
GI50 (MDA-MB-435): 17.2 µM
TGI (MDA-MB-435): 35.8 µM
GI50 (CCRF-CEM leukemia): 22.2 µM
TGI (CCRF-CEM leukemia): 64.5 µM
GI50 (OVCAR-4 ovarian): 23.1 µM
TGI (OVCAR-4 ovarian): > 100 µM
GI50 (HOP-62 NSCLC): > 100 µM
TGI (HOP-62 NSCLC): > 100 µM
GI50 (SK-OV-3 ovarian): > 100 µM
TGI (SK-OV-3 ovarian): > 100 µM
GI50 (SF-539 CNS): 48.3 µM
TGI (SF-539 CNS): > 100 µM
GI50 (IGROV1 ovarian): 40.5 µM
TGI (IGROV1 ovarian): > 100 µM
GI50 (CAKI-1 renal): 39 µM
TGI (CAKI-1 renal): > 100 µM
GI50 (HL-60(TB) leukemia): 13.6 µM
TGI (HL-60(TB) leukemia): 45.4 µM
GI50 (SW-620 colon): 29.5 µM
TGI (SW-620 colon): > 100 µM
GI50 (HCT-116 colon): 32.6 µM
TGI (HCT-116 colon): > 100 µM
GI50 (A549 NSCLC): 54.7 µM
TGI (A549 NSCLC): > 100 µM
GI50 (MDA-MB-468 breast): 11 µM
TGI (MDA-MB-468 breast): 56.1 µM
GI50 (HT29 colon): 31.7 µM
TGI (HT29 colon): > 100 µM
GI50 (SK-MEL-28 melanoma): 65.9 µM
TGI (SK-MEL-28 melanoma): > 100 µM
GI50 (HS 578T breast): 27.4 µM
TGI (HS 578T breast): > 100 µM
GI50 (M14 melanoma): 41.2 µM
TGI (M14 melanoma): > 100 µM
GI50 (BT-549 breast): 39.4 µM
TGI (BT-549 breast): > 100 µM
GI50 (RPMI-8226 leukemia): 27.1 µM
TGI (RPMI-8226 leukemia): > 100 µM
GI50 (T-47D breast): 11.2 µM
TGI (T-47D breast): > 100 µM
GI50 (SF-268 CNS): 34.9 µM
TGI (SF-268 CNS): > 100 µM
GI50 (TK-10 renal): > 100 µM
TGI (TK-10 renal): > 100 µM
GI50 (NCI-H460 lung): 26 µM
TGI (NCI-H460 lung): > 100 µM
GI50 (NCI/ADR-RES ovarian): 33.8 µM
TGI (NCI/ADR-RES ovarian): > 100 µM
GI50 (786-0 renal): > 100 µM
TGI (786-0 renal): > 100 µM
GI50 (ACHN renal): 53.8 µM
TGI (ACHN renal): > 100 µM
GI50 (COLO 205 colon): 22.1 µM
TGI (COLO 205 colon): 79.8 µM
